SMILES strings stand for the structures. Calls of active or inactive are those of the source. No rule for the calls is given here.

This series concerns CCRIS mutagenicity, Ames/micronucleus/aberration tests. Kind of series: CCRIS mutagenicity studies.
Setting [1] is: Test System: AMES SALMONELLA TYPHIMURIUM, Strain/Indicator: TA100, Metabolic Activation: RAT, LIVER, S-9, AROCLOR 1254, Method: STANDARD PLATE.
The mark [2] stands for this setting: Test System: AMES SALMONELLA TYPHIMURIUM, Strain/Indicator: TA100, Metabolic Activation: NONE, Method: PREINCUBATION

Consider `Cl/C=C/CCl`, for which the mutagenic call was “active; positive (structural and ploidy changes)” (End Point: IN VITRO CHROMOSOMAL ABERRATIONS, Test System: CHL CELLS, Metabolic Activation: RAT, LIVER, S-9, SODIUM PHENOBARBITAL AND 5,6-BENZOFLAVONE); “inactive; negative; previous trial yielded positive result at 49.1 ug/ml but no dose-respo” (End Point: IN VITRO CHROMOSOMAL ABERRATIONS, Test System: CHO CELLS, Metabolic Activation: NONE); “inactive; negative” (End Point: IN VITRO CHROMOSOMAL ABERRATIONS, Test System: CHO CELLS, Metabolic Activation: RAT, LIVER, S-9, AROCLOR 1254); “active; positive” (Test System: AMES SALMONELLA TYPHIMURIUM, Strain/Indicator: RSJ100, Metabolic Activation: NONE, Method: VAPOR PHASE); “active; positive” (Test System: AMES SALMONELLA TYPHIMURIUM, Strain/Indicator: TA98, Metabolic Activation: HAMSTER, LIVER, S-9, AROCLOR 1254, Method: STANDARD PLATE); “active; positive” (Test System: AMES SALMONELLA TYPHIMURIUM, Strain/Indicator: TA98, Metabolic Activation: NONE, Method: DESICCATOR). Besides, the mutagenic call is “active; positive” (Test System: AMES SALMONELLA TYPHIMURIUM, Strain/Indicator: TA98, Metabolic Activation: NONE, Method: STANDARD PLATE); “active; positive” (Test System: AMES SALMONELLA TYPHIMURIUM, Strain/Indicator: TA98, Metabolic Activation: RAT, LIVER, S-9, AROCLOR 1254, Method: DESICCATOR); “active; positive” (Test System: AMES SALMONELLA TYPHIMURIUM, Strain/Indicator: TA98, Metabolic Activation: RAT, LIVER, S-9, AROCLOR 1254, Method: STANDARD PLATE); “active; positive” (Test System: AMES SALMONELLA TYPHIMURIUM, Strain/Indicator: TA100, Metabolic Activation: HAMSTER, LIVER, S-9, AROCLOR 1254, Method: STANDARD PLATE); “active; positive” (Test System: AMES SALMONELLA TYPHIMURIUM, Strain/Indicator: TA100, Metabolic Activation: NONE, Method: DESICCATOR); “active; positive” (Test System: AMES SALMONELLA TYPHIMURIUM, Strain/Indicator: TA100, Metabolic Activation: NONE, Method: STANDARD PLATE). In addition, the mutagenic call is “active; positive” (Test System: AMES SALMONELLA TYPHIMURIUM, Strain/Indicator: TA100, Metabolic Activation: RAT, LIVER, S-9, AROCLOR 1254, Method: DESICCATOR); “active; positive” under setting [1]; “active; positive” (Test System: AMES SALMONELLA TYPHIMURIUM, Strain/Indicator: TA1535, Metabolic Activation: HAMSTER, LIVER, S-9, AROCLOR 1254, Method: STANDARD PLATE); “active; positive” (Test System: AMES SALMONELLA TYPHIMURIUM, Strain/Indicator: TA1535, Metabolic Activation: NONE, Method: DESICCATOR); “active; positive” (Test System: AMES SALMONELLA TYPHIMURIUM, Strain/Indicator: TA1535, Metabolic Activation: NONE, Method: STANDARD PLATE); “active; positive” (Test System: AMES SALMONELLA TYPHIMURIUM, Strain/Indicator: TA1535, Metabolic Activation: RAT, LIVER, S-9, AROCLOR 1254, Method: DESICCATOR). The mutagenic call (Test System: AMES SALMONELLA TYPHIMURIUM, Strain/Indicator: TA1535, Metabolic Activation: RAT, LIVER, S-9, AROCLOR 1254, Method: STANDARD PLATE) is “active; positive”; the mutagenic call (Test System: AMES SALMONELLA TYPHIMURIUM, Strain/Indicator: TA1537, Metabolic Activation: HAMSTER, LIVER, S-9, AROCLOR 1254, Method: STANDARD PLATE) is “inactive; negative”; the mutagenic call (Test System: AMES SALMONELLA TYPHIMURIUM, Strain/Indicator: TA1537, Metabolic Activation: NONE, Method: STANDARD PLATE) was “inactive; negative”; the mutagenic call (Test System: AMES SALMONELLA TYPHIMURIUM, Strain/Indicator: TA1537, Metabolic Activation: RAT, LIVER, S-9, AROCLOR 1254, Method: STANDARD PLATE) was “inactive; negative”; the mutagenic call (Test System: AMES SALMONELLA TYPHIMURIUM, Strain/Indicator: TPT100, Metabolic Activation: NONE, Method: VAPOR PHASE) is “active; positive”; the mutagenic call (Test System: UDS HUMAN HEPATOCYTES, Strain/Indicator: THY INCORP, Metabolic Activation: NONE, Method: AUTORADIOGRAPHY) was “active; positive”. The mutagenic call is “active; positive” (Test System: UDS RAT HEPATOCYTES, Strain/Indicator: THY INCORP, Metabolic Activation: NONE, Method: AUTORADIOGRAPHY) and “inactive; negative” (Test System: UDS RAT HEPATOCYTES, Strain/Indicator: THY INCORP, Metabolic Activation: NONE, Method: IN VIVO-IN VITRO).

Take `CC(=O)Nc1ccc(Cc2ccc(NC(C)=O)c(Cl)c2)cc1Cl`: the mutagenic call under setting [2] was “inactive; negative”; the mutagenic call (Test System: AMES SALMONELLA TYPHIMURIUM, Strain/Indicator: TA100, Metabolic Activation: RAT, LIVER, S-9, AROCLOR 1254 (50 µL), Method: PREINCUBATION) was “inactive; negative”; the mutagenic call (Test System: AMES SALMONELLA TYPHIMURIUM, Strain/Indicator: TA100, Metabolic Activation: RAT, LIVER, S-9, AROCLOR 1254 (100 OR 200 µL), Method: PREINCUBATION) was “active; positive”.

Regarding `CCCCCCCCn1sccc1=O`, the mutagenic call (Test System: AMES SALMONELLA TYPHIMURIUM, Strain/Indicator: TA97, Metabolic Activation: HAMSTER, LIVER, S-9, AROCLOR 1254 (10%), Method: PREINCUBATION) was “inactive; negative”; the mutagenic call (Test System: AMES SALMONELLA TYPHIMURIUM, Strain/Indicator: TA97, Metabolic Activation: HAMSTER, LIVER, S-9, AROCLOR 1254 (30%), Method: PREINCUBATION) was “inactive; negative”; the mutagenic call (Test System: AMES SALMONELLA TYPHIMURIUM, Strain/Indicator: TA97, Metabolic Activation: NONE, Method: PREINCUBATION) was “inactive; negative”; the mutagenic call (Test System: AMES SALMONELLA TYPHIMURIUM, Strain/Indicator: TA97, Metabolic Activation: RAT, LIVER, S-9, AROCLOR 1254 (10 OR 30%), Method: PREINCUBATION) was “inactive; negative”; the mutagenic call (Test System: AMES SALMONELLA TYPHIMURIUM, Strain/Indicator: TA98, Metabolic Activation: HAMSTER, LIVER, S-9, AROCLOR 1254 (10%), Method: PREINCUBATION) is “inactive; negative”; the mutagenic call (Test System: AMES SALMONELLA TYPHIMURIUM, Strain/Indicator: TA98, Metabolic Activation: HAMSTER, LIVER, S-9, AROCLOR 1254 (30%), Method: PREINCUBATION) is “inactive; negative”. Also, the mutagenic call was “inactive; negative” (Test System: AMES SALMONELLA TYPHIMURIUM, Strain/Indicator: TA98, Metabolic Activation: NONE, Method: PREINCUBATION); “inactive; negative” (Test System: AMES SALMONELLA TYPHIMURIUM, Strain/Indicator: TA98, Metabolic Activation: RAT, LIVER, S-9, AROCLOR 1254 (10 OR 30%), Method: PREINCUBATION); “inactive; negative” (Test System: AMES SALMONELLA TYPHIMURIUM, Strain/Indicator: TA100, Metabolic Activation: HAMSTER, LIVER, S-9, AROCLOR 1254 (10%), Method: PREINCUBATION); “inactive; negative” (Test System: AMES SALMONELLA TYPHIMURIUM, Strain/Indicator: TA100, Metabolic Activation: HAMSTER, LIVER, S-9, AROCLOR 1254 (30%), Method: PREINCUBATION); “inactive; negative” under setting [2]; “inactive; negative” (Test System: AMES SALMONELLA TYPHIMURIUM, Strain/Indicator: TA100, Metabolic Activation: RAT, LIVER, S-9, AROCLOR 1254 (10 OR 30%), Method: PREINCUBATION). Besides, the mutagenic call by setting is: (Test System: AMES SALMONELLA TYPHIMURIUM, Strain/Indicator: TA1535, Metabolic Activation: HAMSTER, LIVER, S-9, AROCLOR 1254 (10%), Method: PREINCUBATION) “inactive; negative”; (Test System: AMES SALMONELLA TYPHIMURIUM, Strain/Indicator: TA1535, Metabolic Activation: HAMSTER, LIVER, S-9, AROCLOR 1254 (30%), Method: PREINCUBATION) “inactive; negative”; (Test System: AMES SALMONELLA TYPHIMURIUM, Strain/Indicator: TA1535, Metabolic Activation: NONE, Method: PREINCUBATION) “inactive; negative”; (Test System: AMES SALMONELLA TYPHIMURIUM, Strain/Indicator: TA1535, Metabolic Activation: RAT, LIVER, S-9, AROCLOR 1254 (10%), Method: PREINCUBATION) “inactive; negative”; (Test System: AMES SALMONELLA TYPHIMURIUM, Strain/Indicator: TA1535, Metabolic Activation: RAT, LIVER, S-9, AROCLOR 1254 (30%), Method: PREINCUBATION) “inactive; negative”; (Test System: AMES SALMONELLA TYPHIMURIUM, Strain/Indicator: TA1537, Metabolic Activation: HAMSTER, LIVER, S-9, AROCLOR 1254 (30%), Method: PREINCUBATION) “inactive; negative”. Also, the mutagenic call is “inactive; negative” (Test System: AMES SALMONELLA TYPHIMURIUM, Strain/Indicator: TA1537, Metabolic Activation: NONE, Method: PREINCUBATION) and “inactive; negative” (Test System: AMES SALMONELLA TYPHIMURIUM, Strain/Indicator: TA1537, Metabolic Activation: RAT, LIVER, S-9, AROCLOR 1254 (30%), Method: PREINCUBATION).

As to `CC1c2ccccc2-c2ccccc21`, the mutagenic call under setting [1] is “active; positive”.

These data come from PubChem BioAssay AID1259407 (Chemical Carcinogenesis Research Information System (CCRIS), 2018).
